Among the test systems are HOP-62 NSCLC; OVCAR-3 ovarian; OVCAR-5 ovarian; MOLT-4 leukemia; SK-MEL-28 melanoma; 786-0 renal; NCI-H522 lung; MDA-MB-231 breast; MDA-MB-435; PC-3 prostate.
What all share (experiment): NCI anticancer screen, dose series, 48 h

Our source for the TGI and GI50 values is PubChem BioAssay (NCI).

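Step 1: Grow cells in 96-well plates. Step 2: Expose to compound for 48 hours at 5 concentrations. Step 3: Interpolate endpoints linearly; if unreached, use highest concentration. At the GI50, growth is halved. Definition used: TGI = concentration required for complete inhibition of growth.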 Where only a bound is given, the exact number is not on record here.

For the compound `COc1ccccc1NC(=O)C1=C(C)NC(C)=C(C(=O)Nc2ccccc2OC)C1c1ccccc1Cl`, the TGI with HOP-62 NSCLC, with OVCAR-3 ovarian, in the experiment with OVCAR-5 ovarian, in the experiment with MOLT-4 leukemia, in the experiment with SK-MEL-28 melanoma and with 786-0 renal was over 100 µM in each case.
For the compound `O=C1NC2(CCCC2)C2CCCCC12O` (configuration not stated), the TGI with HOP-62 NSCLC, in the experiment with OVCAR-3 ovarian, in the experiment with OVCAR-5 ovarian, in the experiment on MOLT-4 leukemia, in the experiment on NCI-H522 lung and with SK-MEL-28 melanoma was over 100 µM throughout. In the experiment on 786-0 renal, this compound came in with a TGI of over 100 µM.
With `COc1ccc(C2=NN(C(C)=O)C(c3ccc(Oc4ccnc5cc(Cl)ccc45)c(OC)c3)C2)cc1` (configuration not stated), the GI50 in the experiment on HOP-62 NSCLC was 3.37 µM; in the experiment on MDA-MB-231 breast, 7.52 µM; in the experiment on OVCAR-3 ovarian, 5.4 µM; with OVCAR-5 ovarian, over 100 µM; in the experiment on MDA-MB-435, over 100 µM; with MOLT-4 leukemia it was over 100 µM. Moreover, the GI50 in the experiment on NCI-H522 lung is 7.57 µM; with 786-0 renal, 4.52 µM. In addition, the TGI in the experiment on HOP-62 NSCLC was 13.1 µM; in the experiment with MDA-MB-231 breast, over 100 µM; in the experiment with OVCAR-3 ovarian it was over 100 µM; in the experiment with OVCAR-5 ovarian it was over 100 µM; with MDA-MB-435, over 100 µM; in the experiment on MOLT-4 leukemia, over 100 µM. Also, the TGI in the experiment with NCI-H522 lung was over 100 µM; with 786-0 renal it was 26.8 µM.
Regarding `C1C[OH+]CCNCC[OH+]CC[OH+]CCN1.N.[Cl-].[Pt+4]`, the GI50 with HOP-62 NSCLC was over 100 µM; in the experiment on OVCAR-3 ovarian, 89.1 µM; in the experiment on MOLT-4 leukemia, 59.8 µM; in the experiment with NCI-H522 lung, 14.2 µM; in the experiment on SK-MEL-28 melanoma, 49.5 µM; in the experiment on 786-0 renal, over 100 µM. For the same compound, the TGI in the experiment on HOP-62 NSCLC is over 100 µM; with OVCAR-3 ovarian, over 100 µM; in the experiment with MOLT-4 leukemia, over 100 µM; in the experiment with NCI-H522 lung, 48.7 µM; with SK-MEL-28 melanoma it was over 100 µM; in the experiment with 786-0 renal, over 100 µM.
Take `CO/C=C(\Br)c1ccc2c(c1)OCO2`: the TGI in the experiment on HOP-62 NSCLC, in the experiment on OVCAR-3 ovarian, with OVCAR-5 ovarian, in the experiment on MOLT-4 leukemia, in the experiment with NCI-H522 lung and in the experiment with SK-MEL-28 melanoma was over 100 µM throughout. Besides, in the experiment with 786-0 renal, the TGI was over 100 µM.
As to `C[C@]12CCc3nonc3C1CC[C@@H]1C2CC[C@@]2(C)C1CC[C@@H]2O` (some centres not stated), the TGI in the experiment on HOP-62 NSCLC, in the experiment with OVCAR-3 ovarian, in the experiment with OVCAR-5 ovarian, with MOLT-4 leukemia, in the experiment with NCI-H522 lung and with SK-MEL-28 melanoma was over 100 µM throughout. In addition, the TGI in the experiment on 786-0 renal was over 100 µM.
Turning to `Cc1c[nH]c(=O)n(Cc2nnc(CCC(=O)c3nc4ccccc4[nH]3)o2)c1=O`, the GI50 is 0.967 µM with HOP-62 NSCLC; 0.671 µM in the experiment on MDA-MB-231 breast; 0.315 µM in the experiment on OVCAR-3 ovarian; 0.879 µM in the experiment with OVCAR-5 ovarian; 0.477 µM in the experiment on PC-3 prostate; 1.69 µM in the experiment on MOLT-4 leukemia. In addition, the GI50 with NCI-H522 lung is 0.281 µM; in the experiment with SK-MEL-28 melanoma it was 0.533 µM; with 786-0 renal, 1.98 µM. For the same compound, the TGI was over 100 µM in the experiment with HOP-62 NSCLC; over 53 µM with MDA-MB-231 breast; 1.26 µM in the experiment on OVCAR-3 ovarian; over 100 µM with OVCAR-5 ovarian; over 100 µM in the experiment on PC-3 prostate; over 100 µM in the experiment on MOLT-4 leukemia. In addition, the TGI was 1.4 µM with NCI-H522 lung, over 100 µM in the experiment on SK-MEL-28 melanoma and 38.3 µM in the experiment on 786-0 renal.
Consider `CCCCCCCC(=O)OCC1OC(n2cc(F)c(=O)[nH]c2=O)C(N)C(O)C1O` (configuration not stated), for which the TGI in the experiment on HOP-62 NSCLC, in the experiment with OVCAR-3 ovarian, with OVCAR-5 ovarian, in the experiment with MOLT-4 leukemia, in the experiment on NCI-H522 lung and in the experiment on SK-MEL-28 melanoma was over 100 µM in each case. Besides, in the experiment on 786-0 renal, the TGI is over 100 µM.
`N#CC1(N2CCCC2)CCC2(CC1)OCCO2`: the TGI with HOP-62 NSCLC, in the experiment on OVCAR-3 ovarian, with OVCAR-5 ovarian, with MOLT-4 leukemia, in the experiment on NCI-H522 lung and in the experiment on SK-MEL-28 melanoma was over 100 µM throughout. Besides, in the experiment with 786-0 renal, the TGI is over 100 µM.
Consider `C=CCOc1ccc(N)c([N+](=O)[O-])c1`, for which the TGI in the experiment with HOP-62 NSCLC, with OVCAR-5 ovarian, in the experiment on MDA-MB-435, in the experiment on PC-3 prostate, with MOLT-4 leukemia and in the experiment on NCI-H522 lung was over 100 µM throughout. Besides, the TGI in the experiment on SK-MEL-28 melanoma and in the experiment with 786-0 renal was over 100 µM throughout.
As to `CC(=O)[CH-]C(C)=O.CC(=O)[CH-]C(C)=O.[Cl-].[O]=[V]`, the GI50 is 25.5 µM in the experiment with OVCAR-3 ovarian; 26.4 µM in the experiment with OVCAR-5 ovarian; over 100 µM in the experiment on NCI-H522 lung; 25.7 µM with SK-MEL-28 melanoma; 20 µM in the experiment with 786-0 renal. For the same compound, the TGI with OVCAR-3 ovarian was 51.6 µM; in the experiment with OVCAR-5 ovarian it was 70.1 µM; in the experiment with NCI-H522 lung it was over 100 µM; in the experiment with SK-MEL-28 melanoma, over 100 µM; in the experiment with 786-0 renal, 42.9 µM.
For the compound `CCOC(=O)CNC(=O)OCc1ccccc1`, the TGI in the experiment with HOP-62 NSCLC, in the experiment on OVCAR-3 ovarian, with OVCAR-5 ovarian, in the experiment with MOLT-4 leukemia, with NCI-H522 lung and with SK-MEL-28 melanoma was over 100 µM throughout. The compound also displayed a TGI in the experiment with 786-0 renal of over 100 µM.
For `COc1cc(/C=C2\NC(=O)C3Cc4c(OC)c(C)c(OC)c(OC)c4C2N3C)c(OC)c(C)c1OC` (configuration not stated), the TGI with HOP-62 NSCLC, in the experiment with OVCAR-3 ovarian, with OVCAR-5 ovarian, with MOLT-4 leukemia, with NCI-H522 lung and with SK-MEL-28 melanoma was over 100 µM throughout. This compound also yielded a TGI with 786-0 renal of over 100 µM.
For the compound `N#CC(C(=O)CCC(=O)Nc1cccc(C(F)(F)F)c1)c1ccccc1` (configuration not stated), the TGI in the experiment with HOP-62 NSCLC, in the experiment on OVCAR-3 ovarian, in the experiment on OVCAR-5 ovarian, with MOLT-4 leukemia, in the experiment on NCI-H522 lung and in the experiment on SK-MEL-28 melanoma was over 100 µM in each case. Moreover, the TGI with 786-0 renal was over 100 µM.
Regarding `Cc1ccc(/C=N/NS(=O)(=O)c2ccccc2)cc1C`, the TGI with HOP-62 NSCLC, with OVCAR-3 ovarian, in the experiment on OVCAR-5 ovarian, with MOLT-4 leukemia, in the experiment with SK-MEL-28 melanoma and with 786-0 renal was over 100 µM each time.
